The values below come from US20240261248A1, “METHODS FOR TREATING AUTISM SPECTRUM DISORDERS (ASD)” (SK BIOPHARMACEUTICALS CO., LTD., priority 2021, published 2024).

In series [1] the test system is MeCP2 KO mice (HET). In words: Accelerating rotarod test in MeCP2 KO mice (HET). To be noted: accelerating speed 0-40 rpm over 5 min, compared to vehicle-treated HET mice, FIG. 6. In kind it is in vivo, mouse. The source says: The rotarod test is widely used to evaluate the motor coordination of rodents, and is especially sensitive in detecting cerebellar dysfunction. The motor performance on the rotarod can be influenced by several factors, such as motor coordination, learning and cardiopulmonary endurance. Since several studies have shown that basal ganglia are essential in motor skill learning of serial motor sequence. The test measures parameters such as riding time (seconds) or endurance (RPM).
Mice were placed on the rotarod apparatus (Ugo basile, Italy) consisting of a rod that rotates at a constant or variable and accelerating speed of 4 rpm. Once a mouse loses its balance and falls onto an underlying platform, the timer automatically stops. Mice were exposed to the apparatus for 5 min training at a constant speed (4 rpm) and placed back on the rod after each fell. After a rest period of at least 1 hr, animals were placed back on the rotarod apparatus for testing. Once all animals in a test session were loaded on the rod, the rotarod apparatus was placed on accelerating speed (0-40 rpm) over 5 min and then the first falling time was recorded. The test was repeated three consecutive times per animal. For each test session, the RPM score at time of fall off the rod were recorded.

For series [2], the system named is MeCP2 KO mouse primary cortical neurons. Nature of the series: Morphological recovery of MeCP2 KO primary neuron: synaptogenesis and soma size (Synapsin-1, MAP2, Hoechst, DIV14). To be noted: Test compound 1000 nM from DIV1, analysed at DIV14. The series is classed as cell-based. How it is done:
(§1) MeCP2 KO mouse primary cortical neurons were cultured at PO and morphological change was analyzed via immunocytochemistry.
BDNF (50 ng/ml) or Test compound (1000 nM) was treated from DIV1 to indicated days. At DIV14, synaptogenesis and soma size were analyzed with Synapsin-1, MAP2 immunostaining and nuclear staining with Hoechst.

A short description of series [3]: Body weight change in MeCP2 KO mice (HET). The series is classed as in vivo, mouse. The settings on record: 100 mg/kg po daily from about 5 weeks to 16 weeks old, FIG. 5. How it is done:
Vehicle WT group: vehicle (0.9% saline, 10 ml/kg)
Vehicle HET group: vehicle (0.9% saline, 10 ml/kg)
Test compound HET group: 100 mg/kg, po in 0.9% saline
About 5 week old WT and HET mice were treated with daily oral injections of the vehicle or Test compound. Treatment conducted until the mice became 16 weeks old.

In series [4] the test system is MeCP2 KO mice (HET). In words: Hindlimb clasping test in MeCP2 KO mice (HET). The series is classed as in vivo, mouse. To be noted: 100 mg/kg, compared to vehicle-treated HET mice, FIG. 7.
For series [5], the system named is MeCP2 knockout mice (Null). Nature of the series: Survival rate test in MeCP2 knockout mice (Null). In kind it is in vivo, mouse. Here is the method:
Vehicle Null group: vehicle (0.9% saline, 10 ml/kg)
Test compound Null group: 100 mg/kg, po in 0.9% saline
About 5 week old Null mice were treated with daily oral injections of the vehicle or Test compound. MeCP2 knockout mice (Null) survival rate test was conducted until all animals were dead.
ILS ([…])%: 100×(median survival days of test group-median survival days of vehicle group)/median survival days of vehicle group (FIG. 4).

The test system of series [6] is MeCP2 KO mouse primary cortical neurons. Nature of the series: Morphological recovery of MeCP2 KO primary neuron: neurite outgrowth (MAP2 immunostaining, DIV5). In kind it is cell-based. The settings on record: Test compound 80 and 2000 nM from DIV1, analysed at DIV5; BDNF 50 ng/ml as comparator; FIG. 1. How it is done: as §1
BDNF (50 ng/ml) or Test compound (80 and 2000 nM) was treated from DIV1 to indicated days. At DIV5, the neurite outgrowth was analyzed with MAP2 immunostaining for analysis of neurite formation.

Each structure is given as a SMILES string.

On to `NC(=O)OC[C@H](N)Cc1ccccc1` [Test compound, (R)-(beta-amino-benzenepropyl) carbamate], for which, in series [1], the “speed at fall (RPM score)” value is “fell at higher speeds” and the “time to fall off from the rod” value is listed as “took more time to fall off from the rod”. Also, in series [2] (FIG. 2), the synaptogenesis entry was “significantly enhanced”. The soma size result in series [2] (FIG. 3) is “significantly enhanced”. Also, the body weight change entry in series [3] is given as “did not affect the body weight change”. The clasping result in series [4] was “clasped less than vehicle-treated HET mice”. Moreover, the “increase of ILS %” value in series [5] (100 mg/kg po daily from about 5 weeks old, compared to vehicle-treated Null mice, FIG. 4) turned out to be 42.7%. In series [5] (100 mg/kg po daily, vs vehicle, P<0.0046, Log lank test), the life span entry is “significant enhancement of life span”. In addition, in series [6], the “neurite length (neurite outgrowth)” value is “significantly enhanced the neurite length to a level similar to that of BDNF”.
